Experimental data: patent publication US20240239786A1, “COMPOSITIONS AND METHODS FOR THE TREATMENT AND PREVENTION OF CANCER” (Yale University, priority 2021, published 2024)

Tests used:
Format in all cases: cell-based
PEO1 cells [1] = assay: Flow cytometric EdU incorporation (DNA synthesis) assay, PEO1; settings: for cell cycle distribution: 30 μM DB4 or 1 μM triapine; for time-dependent inhibition of DNA synthesis (EdU-positive cells): 30 μM DB4 or 1 μM triapine, 3, 6, 24 hr
Protocol: Cells were plated for 24 hr and then treated with 50 μM compounds for 72 hr. For a positive control, cells were treated with 1 μM triapine for 72 hr. The percentage of cell survival was determined by the MTS cytotoxicity assay. […] Cells were treated with 50 μM compounds or 1 μM triapine for 24 hr. During the last hour, cells were pulse-labeled with EdU, stained with the Click-iT EdU Alexa Fluor 488 Assay Kit, counterstained with 7-AAD, and subsequently analyzed by flow cytometry. EdU-positive cells were gated to determine the percentage of the S phase cell population. The bivariate plots of Alexa Fluor 488 (EdU-positive) and PE-Cy5 (7-AAD-positive) are shown. […] Cells were treated with 50 μM compounds or 1 μM triapine for 24 hr. During the last hour, cells were pulse-labeled with EdU, stained with the Click-iT EdU Alexa Fluor 488 Assay Kit, counterstained with 7-AAD, and subsequently analyzed by flow cytometry. EdU-positive cells were gated to determine the percentage of the S phase cell population. The percentages of DNA synthesis in cells treated with each of 10 compounds and triapine relative to the DMSO-treated control is calculated and shown. FIG. 2D depicts representative results of dNTP measurement on triapine and DB4 in PEO4 cells. Cells were treated with 1 μM triapine or 50 μM DB4 for 24 hr. Cells were extracted with 65% methanol for determination of each of dNTPs expressed as pmole/10^6 cells. Data are means±SD (N=3). *, p<0.05; **, p<0.01; ***, p<0.001, compared with the DMSO-treated control in each dNTP. […] PEO1 cells were pre-treated with 1 mM dA plus […], 10 mM dC plus 10 mM dT, or all dNs for 1 hr and then treated with various concentrations of DB4 or triapine for 72 hr. The percentage of cell survival was determined by the MTS cytotoxicity assay. Data are means±SD (N=3). *, p<0.05; **, p<0.01; ***, p<0.001, compared with the control in each concentration of DB4 or triapine. FIG. 2F depicts schematic representation of structures and molecular compound names of triapine, DB4, and A4.
PEO1 cells were treated with 30 μM DB4 or 1 μM triapine for indicated times, pulsed with EdU for 1 hr and subsequently assayed for DNA synthesis inhibition as described in FIG. 2B. The bivariate plots of Alexa Fluor 488 and PE-Cy5 were gated to determine % S phase cells. […] PEO4 cells were treated with 30 μM DB4 or 1 μM triapine for indicated times, pulsed with EdU for 1 hr and subsequently assayed for DNA synthesis inhibition as described in FIG. 2B. The bivariate plots of Alexa Fluor 488 and PE-Cy5 were gated to determine % S phase cells. […] The bivariate plots of Alexa Fluor 488 and PE-Cy5 shown in FIG. 6A and FIG. 6B were gated to determine % cells in G1, S, and G2/M phases. […] PEO4 cells were treated with 30 μM DB4 or 1 μM triapine for various time periods and subjected to western blot analysis for the levels of cyclin A2, p-CDK1/2, p-H1, p-Chk1, and HSC70. The HSC70 protein level was used as a loading control. Cropped gel images of protein bands are presented. Cyclin A2, p-CDK1/2, and p-H1 bands were from re-probing the same blot. p-Chk1 and HSC70 bands were from re-probing the same duplicated blot. […] The CDK2 activity is expressed by the percentage of the p-HI levels relative to that of the 0 hr control is shown. […] Protein was analyzed by western blotting for p-Chk1, p-ATR, p-RPA32, γH2AX, and HSC70. Cropped gel images of protein bands are presented. All protein bands were from re-probing the same blot. DSB end resection is assessed by the level of p-RPA32. […]

PEO1 cells [2] = assay: Caspase 3/7 assay, PEO1; settings: 50 μM olaparib, 24 hr
Protocol: (§1) Cells were pre-treated with 30 μM DB4 for 1 hr and then treated with various concentrations of olaparib for 72 hr. Cell survival was determined by MTS cytotoxicity assay. Data are means±SD (N=3-4). […] EOB calculation was used to quantify the synergy of the combination of DB4 and various concentrations of olaparib in PEO1 or PEO4 cells as shown in FIG. 8A. EOB>0, synergism; EOB=0, additivity; EOB<0, antagonism. […] Cells were pre-treated with 30 μM DB4-F for 1 hr and then treated with various concentrations of olaparib for 72 hr. Cell survival was determined by MTS cytotoxicity assay. Data are means±SD (N=3-4). […] EOB calculation was used to quantify the synergy of the combination of DB4-F and various concentrations of olaparib in PEO1 or PEO4 cells as shown in FIG. 8B. […] Cell survival was determined by MTS cytotoxicity assay. […] Caspase 3/7 activity was expressed as RLU per μg/μl protein. […] Caspase 3/7 activity was expressed as RLU per μg/μl protein. […] Cells were treated and caspase 3/7 activity was measured as described in FIG. 8G and FIG. 8H.
(§2) Furthermore, the effects of DB4 on olaparib-induced apoptosis at 24 hr were evaluated. […]
(§3) The assay was performed as described previously (Lin Z P et al., 2018, PLOS One, 13:e0207399). […] Total protein concentration of cell lysates was determined as described above. Caspase 3/7 activity was expressed as luminescence units (RLU) per μg/μL protein for each sample.

PEO4 cells = assay: Caspase 3/7 assay, PEO4; settings: 50 μM olaparib, 24 hr
Protocol: as §1, §2, §3

Row | SMILES | cell cycle distribution (PEO1 cells [1]) | time-dependent inhibition of DNA synthesis (EdU-positive cells) (PEO1 cells [1]) | caspase 3/7 activity, olaparib alone (PEO1 cells [2]) | caspase 3/7 activity, olaparib alone (PEO4 cells) | effect on olaparib-induced caspase 3/7 activity (PEO1 cells [2]) | inhibition at 50 µM (PEO1 cells [1]; Homo sapiens, 50 μM, 24 hr) | effect on olaparib-induced caspase 3/7 activity (PEO4 cells; DB4 starting at 7.5 μM)
1 | NC(=S)NN=Cc1ncccc1N [triapine, 3-aminopyridine-2-carboxaldehyde-thiosemicarbazone, reference compound] | expansion of the G2/M population | prompt reduction in EdU-positive cells | – | – | – | – | –
2 | O=C(c1cc(Cc2n[nH]c(=O)c3ccccc23)ccc1F)N1CCN(C(=O)C2CC2)CC1 [olaparib, reference compound] | – | – | pronounced increase in caspase 3/7 activity | minor increase in caspase 3/7 activity | – | – | –
3 | C=CCn1c(SCc2cccc(Cl)c2)nnc1C1CCN(Cc2nc3ccccc3s2)CC1 [DB4, 2-[(4-{4-allyl-5-[(3-chlorobenzyl)thio]-4H-1,2,4-triazol-3-yl}-1-piperidinyl)methyl]-1,3-benzothiazole] | expansion of the G2/M population | gradual decline in the EdU-positive cell population | – | – | failed to enhance | > 99% | markedly augmented
